Laboratory results: paper PMC11172314, “Towards Enhanced Tunability of Aqueous Biphasic Systems: Furthering the Grasp of Fluorinated Ionic Liquids in the Purification of Proteins” (International Journal of Molecular Sciences, 2024)

How the values were obtained:
lysozyme (Lys) [1] = molecular target: T1, lysozyme (Lys) (Gallus gallus, UniProt P00698); assay: Far-UV CD secondary structure content of lysozyme (K2D deconvolution); parameters: species or system chicken; Lys α-helix content / Lys β-sheet content / Lys random coil content / α-helix content / β-sheet content / Random coil content: unit not given here; conditions: 1.0 mg/ml Lys, 25 °C
T1 construct: Lyophilized lysozyme from chicken egg white, ≥90% purity; purchased Millipore (Darmstadt, Germany); host or cells: chicken egg white (natural source)
Protocol: Circular dichroism (CD) spectroscopy is broadly applied to assess the secondary structure of proteins because different structural elements have characteristic CD spectra. […] For [C4C1Im][CF3SO3] (mere fluoro-containing IL), the structural content was estimated for the concentration range (0.1–200 mM). […] FIL and [ N1112(OH) ][H2PO4] […] No substantial protein structural modification upon the ABS phase-forming component addition was verified.
Circular dichroism (CD) spectra were collected in a 10 mm quartz cuvette and a Chirascan spectropolarimeter (Applied Photophysics, Leatherhead, UK) at room temperature. All CD spectra were recorded in far-UV 190 to 260 nm at scan rates of 50 nm/min, 4 accumulations, and a response time of 3 s. Each CD experiment involved the acquisition and combination of two distinct duplicates. […] Spectral deconvolution was carried out with Dichroweb using the K2D algorithm.

lysozyme (Lys) [2] = molecular target: T1, lysozyme (Lys); assay: DSC thermal stability (Tm, ΔH) of lysozyme in water, component solutions and ABS phases; parameters: species or system chicken; conditions: 1.0 mg/mL Lys
Source text: Differential scanning calorimetry (DSC) measurements (Section 3) were used to determine the melting temperature ( Tm ) and enthalpy ( Δ H) of lysozyme, at which both the folded and unfolded states coexist at equilibrium. DSC outputs, thermal transitions at the nanoscale level, allow to analyze alterations on proteins structure and stability, providing sharp perceptions of the factors affecting stability, as well as of the folding and unfolding processes. […] (DSC curve depicted in Figure S16 of Supplementary Materials).
FIL (BP#8, BP#10, BP#11, and BP#12). […] For the system based on [C4C1Im][CF3SO3]
The thermal stability of lysozyme was analyzed in water, ABS phase-forming compounds aqueous solutions, and partition ABS phases. […] Partition lysozyme on each phase from the prepared biphasic points as well as recovered protein from the FIL-rich phase were also addressed for a selection of studied systems listed in Table 1. We acquired thermograms using a TA^TM Nano DSC from TA Instruments. All scans were conducted in a 300 μ L capillary cell through a temperature ramp from 20 to 90 °C at a heating rate of 1 °C/min and 3 atm pressure. All samples were degassed for 7 min at 20 °C, with the exception of FIL-containing samples owing to their surfactant properties. After subtracting the polynomial fit baselines, raw thermogram curve data were fitted with the TwoStateScaled model using NanoAnalyze TA Instruments software, version 3.12, to determine the protein thermal transition temperatures in each sample. During nanoDSC scans, Δ H and Δ S were obtained and utilized to determine Δ G ( Δ G = Δ H − T Δ S).

FITC-Lys (lysozyme) = molecular target: T2, FITC-Lys (lysozyme) (Gallus gallus, UniProt P00698); assay: Microscale thermophoresis (MST) binding of ABS phase-forming components to FITC-labeled lysozyme; parameters: species or system chicken; conditions: FITC-Lys 0.41 μM, 25 °C; max. conc. (first capillary) in monomer range: below 1st CAC for FILs, ]0, 100] mM for non-aggregating ligands
T2 construct: Lyophilized lysozyme from chicken egg white, ≥90% purity; purchased Millipore (Darmstadt, Germany); host or cells: chicken egg white (natural source)
Protocol: Usually, in the labeling process, the position of dye is statistically distributed, and one amine per protein is labeled. […] The four ABS phase-forming components, [ N1112(OH) ][H2PO4] […] (FILs), and [C4C1Im][CF3SO3] […] In each run of MST, a maximum concentration of ligand was selected and consecutively diluted in sixteen capillaries.
Binding studies were conducted through microscale thermophoresis measurements of dye-labeled lysozyme. […] MST tests were conducted in a monolith NT.115 (blue/red) in accordance with the Nano Temper Technologies methodology. Medium MST power and 20% LED power (nano-blue) were set as the instrument’s default settings. For each and every MST measurement, PBS buffer was used. […] For each ligand, a series of 16 1:1 dilutions was prepared using the same buffer, varying the starting ligand concentration from 15 to 400 mM. MST traces were recorded using the standard parameters: 5 s MST power off, 30 s MST power on, and 5 s MST power off. Three independently conducted pipetted experiments’ data were examined using NanoTemper Technologies’ MO. Affinity Analysis program, version 2.3.

T1 sequence (P00698 19-147): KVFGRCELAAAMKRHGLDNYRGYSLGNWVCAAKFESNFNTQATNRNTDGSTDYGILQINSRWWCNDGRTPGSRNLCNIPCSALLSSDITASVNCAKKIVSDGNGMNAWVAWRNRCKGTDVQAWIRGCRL
T2 sequence (P00698 19-147): as above

Compound: CCCCn1cc[n+](C)c1.O=S(=O)([O-])C(F)(F)F [[C4C1Im][CF3SO3]]
- Lys random coil content (lysozyme (Lys) [1]; 0.1 mM component): 0.56
- Lys α-helix content (lysozyme (Lys) [1]; 0.1 mM component): 0.28
- Lys β-sheet content (lysozyme (Lys) [1]; 0.1 mM component): 0.15
- Lys random coil content (lysozyme (Lys) [1]; 1 mM component): 0.57
- Lys α-helix content (lysozyme (Lys) [1]; 1 mM component): 0.28
- Lys β-sheet content (lysozyme (Lys) [1]; 1 mM component): 0.15
- Lys random coil content (lysozyme (Lys) [1]; 5 mM component): 0.57
- Lys α-helix content (lysozyme (Lys) [1]; 5 mM component): 0.28
- Lys β-sheet content (lysozyme (Lys) [1]; 5 mM component): 0.15
- Lys random coil content (lysozyme (Lys) [1]; 25 mM component): 0.57
- Lys α-helix content (lysozyme (Lys) [1]; 25 mM component): 0.28
- Lys β-sheet content (lysozyme (Lys) [1]; 25 mM component): 0.15
- Lys random coil content (lysozyme (Lys) [1]; 55 mM component): 0.57
- Lys α-helix content (lysozyme (Lys) [1]; 55 mM component): 0.28
- Lys β-sheet content (lysozyme (Lys) [1]; 55 mM component): 0.15
- Lys random coil content (lysozyme (Lys) [1]; 90 mM component): 0.56
- Lys α-helix content (lysozyme (Lys) [1]; 90 mM component): 0.28
- Lys β-sheet content (lysozyme (Lys) [1]; 90 mM component): 0.15
- Lys random coil content (lysozyme (Lys) [1]; 120 mM component): 0.56
- Lys α-helix content (lysozyme (Lys) [1]; 120 mM component): 0.28
- Lys β-sheet content (lysozyme (Lys) [1]; 120 mM component): 0.15
- Lys random coil content (lysozyme (Lys) [1]; 200 mM component): 0.55
- Lys α-helix content (lysozyme (Lys) [1]; 200 mM component): 0.29
- Lys β-sheet content (lysozyme (Lys) [1]; 200 mM component): 0.16
- Lys Tm (lysozyme (Lys) [2]; 0.1 mM component in water): 74.50 °C
- Lys ∆H (lysozyme (Lys) [2]; 0.1 mM component in water): 105.5 kcal/mol
- Lys Tm (lysozyme (Lys) [2]; 1 mM component in water): 75.54 °C
- Lys ∆H (lysozyme (Lys) [2]; 1 mM component in water): 104.7 kcal/mol
- Lys Tm (lysozyme (Lys) [2]; 5 mM component in water): 74.64 °C
- Lys ∆H (lysozyme (Lys) [2]; 5 mM component in water): 96.7 kcal/mol
- Lys Tm (lysozyme (Lys) [2]; 10 mM component in water): 74.16 °C
- Lys ∆H (lysozyme (Lys) [2]; 10 mM component in water): 94.55 kcal/mol
- Kd (FITC-Lys (lysozyme)): no binding detected
